Measured values published in patent US10188639B2, “Methods of treating neurological, metabolic, and other disorders using enantiopure deuterium-enriched pioglitazone” (DeuteRx, LLC, priority 2014, dated 2019).
Like-named read-outs stand apart in the source and are kept apart here.

Columns and labels:
[1] = Pharmacokinetics in male C57BL/6 mice after oral gavage for 5 days; settings: day 5, oral gavage daily; for t1/2 (h) d-S: elimination half-life of d-S-pio; for t1/2 (h) h-R: elimination half-life of h-R-pio; for t1/2 (h) h-R / t1/2 (h) h-S: h-rac-pio 30 mg/kg, d-S-pio and d-R-pio 15 mg/kg; for t1/2 (h) h-S: elimination half-life of h-S-pio
Procedure: (§1) Animals were then euthanized. Plasma was separated by centrifugation and stored at −80° C. until analyzed.
(§2) Concentrations were calculated by interpolation on standard curves generated from mouse plasma samples spiked with known concentrations of the pure analytes.

[2] = Body weight gain in male C57BL/6J mice on a standard diet; format: in vivo, mouse; settings: twice daily oral gavage for 11 days; overall daily dose h-rac-pio 30 mg/kg, d-S-pio 15 mg/kg, d-R-pio 15 mg/kg; vs. vehicle
Procedure: Male C57BL/6J mice (about 28 g body weight) were acclimated singly-housed for one week to a reverse light/dark cycle with free access to water and standard maintenance diet. Animals were then handled daily for one week followed by another 7 days of twice daily dosing with vehicle (0.5% methylcellulose in water) by oral gavage. […] Body weights were measured twice daily, prior to each dosing, to adjust individual dosing volumes to actual body weights.

[3] = system: db/db mice; test: db/db mouse model of type II diabetes, 10-day daily oral dosing; format: in vivo; settings: for non-essential fatty acids: 20 mg/kg daily oral gavage, 10 days, compared with h-rac-pio 30 mg/kg; for adiponectin: d-S-pio 20 mg/kg; for decrease of IL-1β / decrease of IL-6 / decrease of TNF-α: d-R-pio 20 mg/kg
Procedure: Body weights were measured throughout the study. Non-fasting blood glucose (10 μL by tail snip) was measured 4 hours prior to first dose, and animals were sorted and assigned to groups based on this measure. […] A terminal blood sample was collected for determination of serum levels of cholesterol, triglycerides, free fatty acids, adiponectin, serum amyloid A, and cytokines IL-1β, IL-6, TNF-α, and MCP-1, using standard analytical methods. Quantitative results were analyzed by statistical methods using, as appropriate, one- or two-way ANOVA or Kruskal-Wallis tests for differences followed by Sidak's, Dunnett's, or Dunn's post-test to determine differences vs. vehicle-treated control animals. All graphs were generated with GraphPad Prism version 6.0.2 (GraphPad Software, Inc., La Jolla, Calif.).

[4] = mouse, in vivo, po, 15 mg/kg
Procedure: as §1, §2

[5] = biological target: human recombinant monoamine oxidase B (Homo sapiens (Human), UniProt P27338); test: Monoamine oxidase B (MAO-B) inhibition, luminescence assay; format: biochemical
Procedure: The mixtures were incubated at 22° C. for 5 min. Substrate (D-luciferin derivative) was added, and then the mixture was incubated at 37° C. for 60 min. The reaction was stopped by addition of the detection reagent containing luciferase. Luminescence was read after standing for 60 min at room temperature.
Results were expressed as a percentage of the luminescence of the control (enzyme+substrate). IC50 values were obtained by fitting experimental data (mean % luminescence as function of concentration) to the Hill equation with variable slope using non-linear regression analysis.

[6] = plasma
Procedure: The plasma samples were incubated at 37° C. in duplicate (anticoagulant: K3EDTA). […] Samples were placed at −80° C. until the study was complete. […] The vortexed samples were centrifuged and 50 μL of supernatant was dispensed in a 96-well plate.
The deuterium in both enantiomers, d-S and d-R, can be lost by D/H exchange to give both protonated enantiomers, h-S and h-R with rate constants kDRR, kDRS, kDSR, and kDSS. At the same time, the protonated enantiomers h-S and h-R can exchange with enantiomerization rate constants kRS and kSR. All four compounds can also degrade with potentially different degradation rate constants kdSd, kdRd, khSd, and khRd.
Human and mouse plasma data were analyzed independently. […] Data in each species was analyzed using a stepwise approach.
The step between calculated time points was minimized in order to minimize the local error (proportional to the square of the step size) and the global error (proportional to the step size).

[7] = 10 days daily oral, h-rac-pio 30 mg/kg, vs. vehicle

human recombinant monoamine oxidase B, sequence (P27338 whole entry): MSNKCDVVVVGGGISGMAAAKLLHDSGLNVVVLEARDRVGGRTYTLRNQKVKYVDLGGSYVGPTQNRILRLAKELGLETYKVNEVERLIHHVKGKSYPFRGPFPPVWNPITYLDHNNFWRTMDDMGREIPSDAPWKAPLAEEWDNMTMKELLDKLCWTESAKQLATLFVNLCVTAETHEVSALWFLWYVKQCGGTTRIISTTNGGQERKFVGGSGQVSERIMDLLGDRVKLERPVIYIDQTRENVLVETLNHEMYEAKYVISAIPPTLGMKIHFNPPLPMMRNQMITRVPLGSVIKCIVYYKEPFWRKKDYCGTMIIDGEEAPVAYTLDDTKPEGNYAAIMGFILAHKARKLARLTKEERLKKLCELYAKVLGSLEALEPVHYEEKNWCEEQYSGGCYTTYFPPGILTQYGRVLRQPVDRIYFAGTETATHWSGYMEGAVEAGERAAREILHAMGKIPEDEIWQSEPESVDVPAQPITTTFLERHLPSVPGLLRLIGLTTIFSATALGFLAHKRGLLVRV

SMILES | t1/2 (h) d-S ([1]; 15 mg/kg) | t1/2 (h) h-R [1] | t1/2 (h) h-S [1] | percent body weight difference versus day 1 body weight [2] | non-essential fatty acids [3] | adiponectin [3, 7] | decrease of IL-1β [3, 7] | decrease of IL-6 [3, 7] | decrease of TNF-α [3, 7] | insulin [3, 7] | tmax (h) d-R [4] | difference in inhibition efficacy between d-R-pio and d-S-pio [5] | AUC0-inf (ng · h/mL) d-R ([1]; plasma d-R-pio, 15 mg/kg) | Cmax (ng/mL) d-R ([1]; plasma d-R-pio, 15 mg/kg) | t1/2 of h-R-pio, ln(2)/kRS ([6]; human) | t1/2 of h-S-pio, ln(2)/kSR ([6]; human) | t1/2 of h-R-pio, ln(2)/kRS ([6]; mouse) | t1/2 of h-S-pio, ln(2)/kSR ([6]; mouse)
[2H][C@@]1(Cc2ccc(OCCc3ccc(CC)cn3)cc2)SC(=O)NC1=O [d-S-pio, (S)-5-({p-[2-(5-Ethyl-2-pyridyl)ethoxy]phenyl}methyl)-(5-^2H)-1,3-thiazolidine-2,4-dione] | 2.3 h | 3.2 h | 3.1 h | statistically significant increase | a similar trend was observed | significantly increased |  |  |  |  |  |  |  |  |  |  |  | 
CCc1ccc(CCOc2ccc(CC3SC(=O)NC3=O)cc2)nc1 (racemic) [h-rac-pio, rac-5-({p-[2-(5-Ethyl-2-pyridyl)ethoxy]phenyl}methyl)-1,3-thiazolidine-2,4-dione, reference compound] |  |  |  | statistically significant increase |  | significantly increased | trending | trending | trending | significantly decreased |  |  |  |  |  |  |  | 
[2H][C@]1(Cc2ccc(OCCc3ccc(CC)cn3)cc2)SC(=O)NC1=O [d-R-pio, (R)-5-({p-[2-(5-Ethyl-2-pyridyl)ethoxy]phenyl}methyl)-(5-^2H)-1,3-thiazolidine-2,4-dione] | 0.8 h | 2.5 h | 2.5 h | did not increase percent body weight difference over vehicle | a similar trend was observed |  | trending | trending | trending |  | 1 h | greater than 5 fold | 18892 ng·h/mL | 6360 ng/mL |  |  |  | 
[2H]C1(Cc2ccc(OCCc3ccc(CC)cn3)cc2)SC(=O)NC1=O (racemic) [d-rac-pio, rac-5-({p-[2-(5-Ethyl-2-pyridyl)ethoxy]phenyl}methyl)-(5-^2H)-1,3-thiazolidine-2,4-dione] |  |  |  |  |  |  |  |  |  |  |  |  |  |  | 1.6 h | 1.6 h | 0.9 h | 0.75 h
